This is an account of results in US10202408B2, “Prodrugs and methods of use thereof” (Health Innovation Ventures B.V., priority 2012, dated 2019).

“Also recorded” adds a separate entry of the source.

For data set [1], the system named is 15% E coli NfsA-expressing HCT116 xenografts. The experiment in a line: Tumour growth delay, 15% E coli NfsA-expressing HCT116 xenografts. The class given is in vivo, NIH-III mice. The following applies: single dose; 10, 22 and 60 at 1000, 422 and 1330 umol/kg. The method, then:
(§1) Animals weighed 18-25 g at the time of tumour inoculation. Tumours were grown subcutaneously on the right flank of mice by inoculating cells grown in tissue culture (1×10^7 cells in 100 uL serum free α-MEM). Tumour sizes were monitored three times weekly using electronic callipers and treatments were initiated once tumour diameter reached ≥7 mm.
(§2) Tumour bearing mice were randomised into the appropriate treatment groups and tumour size and body weight recorded. Test compounds were formulated on the day of the experiment and kept in foil-wrapped tubes out of direct fluorescent light. If recruitment of animals occurred over multiple days, the drug stocks were aliquoted into tubes and frozen once at […] until required. Mice were treated with a single (or BID) dose of prodrug by intraperitoneal injection and thereafter tumour size and body weight was monitored every second day. Tumour volume was calculated as π (l×w×w)/6, where l is the major axis and w is the perpendicular minor axis. Animals were culled when they had reached the appropriate survival endpoint or when body weight loss exceeded 20% of the pre-treatment value.

Data set [2] relates to 15% E coli NfsA-expressing H1299 xenografts. The experiment in a line: Tumour growth delay, 15% E coli NfsA-expressing H1299 xenografts. The format is in vivo, NIH-III mice. The following applies: for tumour growth delay: mixed HCT116 and H1299 xenografts, 15% E coli NfsA cells, single (or BID) intraperitoneal dose; for E coli NfsA mediated anti-tumour efficacy (mean tumour volume): single dose, 10, 22, 60 and 11 at 750, 422, 1330 and 1330 umol/kg. How it is done: as §1, §2

Data set [3] relates to HCT116 cells engineered to over-express human aldo-ketoreductase 1C3 (AKR1C3). The experiment in a line: Low cell density IC50 (SRB) assay, HCT116 wild type versus AKR1C3 over-expressing cells. The format is cell-based. The following applies: 4 h exposure. How it is done: (§3) Compounds were subjected to testing, including low-cell density cytotoxicity assay. Cells (500 cells/well) were seeded in 96-well plates and exposed to prodrug for 4 h, washed, then left to grow for a further 5 days. The SRB assay was employed to determine IC50 values (concentration of prodrug required to inhibit proliferation by 50%). Parental HCT116 cells (HCT116 is a cell line derived from human colon cancer) and cells expressing the example nitroreductase gene nfsA from Escherichia coli were evaluated head-to-head. Parental H1299 cells (H1299 is a cell line derived from lung cancer) and cells expressing the example nitroreductase gene nfsA from Escherichia coli were evaluated head-to-head. Parental HCT116 cells and cells expressing human AKR1C3 were evaluated head-to-head. Parental H1299 cells and cells expressing human AKR1C3 were evaluated head-to-head. In a variation of these assays test compounds were assessed for their ability to give hypoxia-selective cell killing. Here wild type HCT116, H460 (H460 is a cell line derived from lung cancer), H1299 and SiHa cells (SiHa is a cell line derived from cervical cancer) were used in addition to HCT116 cells engineered to over express cytochrome P450 reductase (HCT116 POR), a human one-electron nitroreductase. Low-cell density cytotoxicity assays were performed as above under oxic conditions and compared to experiments where cells were shown 4 h of anoxia during the prodrug exposure period, before being washed free of prodrug and then left to grow for a further 5 days under oxic conditions, as above.

The subject of data set [4] is HCT116 MCLs over-expressing AKR1C3. The experiment in a line: Multicellular layer (MCL) clonogenic assay, HCT116 wild type versus AKR1C3 over-expressing MCLs. The format is cell-based, human. How it is done: (§4) In parallel, a three dimensional high-cell density multi-cellular layer (MCL) clonogenic assay was performed. 1×10^6 cells of either 100% HCT-116^WT or containing 97% WT with a minor 3% HCT-116^NTR cell population were seeded into a collagen-coated Teflon microporous membrane and left to grow for 3 days. MCLs were then exposed to prodrug for 5 h. After treatment, MCLs were enzyme dissociated, diluted in fresh medium and plated to determine clonogenic survival. To discriminate clonogenic activator (NTR+) from target (NTR−) colonies, cells were plated in non-selective medium (total cells) and medium containing 1 μM puromycin (activator cells). Colonies were grown for 10 days before staining. Colonies containing >50 cells were counted. A variation of this assay was also used to assess for evidence of AKR1C3-dependent cytotoxicity. Here either 100% HCT-116W^T or 100% HCT-116^AKR1C3 cells were seeded to provide MCLs that were then exposed to prodrug.

The test system of data set [5] is HCT116 cells engineered to over-express E coli NfsA. The experiment in a line: Low cell density IC50 (SRB) assay, HCT116 wild type versus E coli NfsA over-expressing cells. The format is cell-based, human. How it is done: as §3
The test system of data set [6] is H1299 cells engineered to over-express E coli NfsA. The experiment in a line: Low cell density IC50 (SRB) assay, H1299 wild type versus E coli NfsA over-expressing cells. The format is cell-based, human. The method, then:
as §3

Data set [7] relates to HCT116 MCLs with 3% E coli NfsA-expressing cells. The experiment in a line: MCL clonogenic bystander assay, HCT116 MCLs seeded with 3% E coli NfsA-expressing cells. The format is cell-based, human. The following applies: 97% wild type HCT116, 3% E coli NfsA-expressing cells. The method, then:
as §4

Data set [8] concerns bacterial nitroreductases from the NfsA and NfsB families. The experiment in a line: GFP SOS assay with nitroreductase over-expression library. Particulars: 55 candidate nitroreductase library, 6 h challenge. The class given is cell-based, E. coli strain SOS-R4. From the text:
The method employed the over-expression of a candidate nitroreductase gene from plasmid pUCX in an SOS reporter strain, as first described in Prosser et al., 2010, Biochem Pharmacol 79, 678-687. In order to enhance the sensitivity of the SOS reporter system, an sfiA::GFP reporter construct was integrated into a CDF-based plasmid (which contains a compatible origin of replication with pUCX) to give the pANODuet reporter plasmid for GFP screening. In addition, nfsA, nfsB, azoR, and nemA genes were deleted to minimise background metabolism, and the tolC gene deleted to minimise efflux of test compounds; this strain was designated SOS-R3. Further improvements were obtained by deleting the mdaB, ycaK, and yieF genes to minimise background metabolism, and by introducing transcriptional terminators to the pANODUET reporter plasmid. This final reporter strain was designated SOS-R4.
Stored glycerols of the 55-membered nitroreductase library in SOS-R4 were thawed and used to inoculate overnight cultures (Lysogeny Broth (LB) amended with 100 μg ml^−1 Ampicillin, 50 μg ml^−1 Spectinomycin, 0.4% glucose) that were incubated at 30° C., 200 rpm for 16 h. The next morning the GFP-SOS assay was commenced by inoculation of 195 μl fresh assay media (LB+100 μg ml^−1 Ampicillin, 50 μg ml^−1 Spectinomycin, 0.2% glucose, 50 μM IPTG) with 15 μl of overnight culture in individual wells of a 96-well plate. Plates were incubated at 30° C., 200 rpm for 2.5 h (pre-challenge period), following which cultures were diluted 1:2 by splitting 50:50 into fresh assay media (+DMSO to 0.5% final concentration) and fresh challenge media (assay media+drug to desired concentration, DMSO to 0.5% final concentration) to final volumes of 80 μl apiece in duplicate on a 384-well plate. Plates were incubated at 30° C., 200 rpm for 6 h (challenge period). GFP expression was determined at excitation 488 nm/emission 509 nm. Turbidity was determined by OD600 and fluorescence data from any replicates not found to be within 15% of the median culture turbidity were discarded.

For data set [9], the system named is HCT116, H460, H1299 and SiHa wild type cancer cell lines. The experiment in a line: Oxic versus anoxic low cell density IC50 assay, wild type cancer cell lines. The following applies: 4 h anoxia during prodrug exposure versus oxic. The format is cell-based, human. How it is done: as §3
For data set [10], the system named is HCT116 POR cell line (over-expressing Cytochrome P450 reductase). The experiment in a line: Oxic versus anoxic low cell density IC50 assay, HCT116 POR cells. Particulars: HCT116 POR cell line compared with wild type. The format is cell-based, human. How it is done:
as §3, with “Low-cell density cytotoxicity assays were performed as above under oxic conditions and compared to experiments where cells were shown 4 h of anoxia during the prodrug exposure period, before being washed free of prodrug and then left to grow for a further 5 days under oxic conditions, as above.” left out

Data set [11] relates to bacterial nitroreductases from the NfsA and NfsB families. The experiment in a line: GFP SOS assay with nitroreductase over-expression library. The class given is cell-based, E. coli strain SOS-R4. Particulars: single and poly mutated variants of NfsA_Ec, single-mutated variant of NfsA_Bs.

On to `CN(CCOP(=O)(O)O)C(=O)c1cc(N(CCBr)CCBr)c(S(C)(=O)=O)cc1[N+](=O)[O-]` [compound 10, 2-(5-(bis(2-bromoethyl)amino)-N-methyl-4-(methylsulfonyl)-2-nitrobenzamido)ethyl dihydrogen phosphate], for which the “E coli NfsA mediated anti-tumour efficacy (mean tumour volume)” value in data set [1] is recorded as “display significant E coli NfsA mediated anti-tumour efficacy”. Further, in data set [2], the tumour growth delay result was “profound tumour growth delay” and the “E coli NfsA mediated anti-tumour efficacy (mean tumour volume)” value is “display significant E coli NfsA mediated anti-tumour efficacy”.
In the case of `CN(CCO)C(=O)c1cc(N(CCBr)CCBr)c(S(C)(=O)=O)cc1[N+](=O)[O-]` [compound 14, 5-(bis(2-bromoethyl)amino)-N-(2-hydroxyethyl)-N-methyl-4-(methylsulfonyl)-2-nitrobenzamide], the “AKR1C3-mediated cytotoxicity (IC50 wild type versus AKR1C3)” value in data set [3] was “less susceptible to AKR1C3-mediated cytotoxicity than PR-104A”. Moreover, the “AKR1C3-dependent clonogenic cell kill in MCLs” value in [4] was “do not cause AKR1C3-dependant cytotoxicity”. The “E coli NfsA-mediated cytotoxicity (IC50 wild type versus NfsA)” value in [5] and in [6] was “produce E coli NfsA-mediated cytotoxicity” throughout. The “bystander cell killing in MCLs” value in [7] is reported as “display evidence of metabolism by the 3% E coli NfsA-expressing cells with bystander cell killing of the 97% non-expressing neighbour cells”. Also, in [8], the “metabolism by bacterial nitroreductases (SOS response)” value is “substrates for multiple wild type and mutant bacterial nitroreductases from the NfsA and NfsB families”. For the same compound, in data set [9], the hypoxia-dependent cytotoxicity entry is reported as “increased cytotoxicity in cells under hypoxia”. The “Hypoxic Cytotoxicity Ratios (HCR)” value in [10] is “Larger HCRs; also recorded: The degree of this effect was increased”. Also, the “activity with mutated nitroreductase variants” value in data set [11] is on record as “demonstrated”.
Turning to `CCS(=O)(=O)c1cc([N+](=O)[O-])c(C(=O)N(C)CCO)cc1N(CCBr)CCBr` [compound 18, 5-(bis(2-bromoethyl)amino)-4-(ethylsulfonyl)-N-(2-hydroxyethyl)-N-methyl-2-nitrobenzamide], the “AKR1C3-mediated cytotoxicity (IC50 wild type versus AKR1C3)” value in data set [3] is listed as “less susceptible to AKR1C3-mediated cytotoxicity than PR-104A”. Also, the “AKR1C3-dependent clonogenic cell kill in MCLs” value in data set [4] is listed as “do not cause AKR1C3-dependant cytotoxicity”. Moreover, the “E coli NfsA-mediated cytotoxicity (IC50 wild type versus NfsA)” value in data set [5] and in [6] was “produce E coli NfsA-mediated cytotoxicity” each time. Further, the “bystander cell killing in MCLs” value in [7] is reported as “display evidence of metabolism by the 3% E coli NfsA-expressing cells with bystander cell killing of the 97% non-expressing neighbour cells”. Moreover, the “metabolism by bacterial nitroreductases (SOS response)” value in data set [8] was “substrates for multiple wild type and mutant bacterial nitroreductases from the NfsA and NfsB families”. The hypoxia-dependent cytotoxicity entry in data set [9] is reported as “increased cytotoxicity in cells under hypoxia”. Further, the “activity with mutated nitroreductase variants” value in [11] is reported as “demonstrated”.
As to `CS(=O)(=O)OCCN(CCBr)c1ccc([N+](=O)[O-])cc1C(=O)NCCOP(=O)(O)O` [compound 60, 2-((2-bromoethyl)(4-nitro-2-((2-(phosphonooxy)ethyl)carbamoyl)phenyl)amino)ethyl methanesulfonate], the “E coli NfsA mediated anti-tumour efficacy (mean tumour volume)” value in data set [1] is reported as “display significant E coli NfsA mediated anti-tumour efficacy”. Also, in data set [2], the tumour growth delay result was “profound tumour growth delay” and the “E coli NfsA mediated anti-tumour efficacy (mean tumour volume)” value is recorded as “display significant E coli NfsA mediated anti-tumour efficacy”.
For `CS(=O)(=O)c1cc([N+](=O)[O-])c(C(=O)NCCO)cc1N(CCBr)CCBr` [compound 301, 5-(bis(2-bromoethyl)amino)-N-(2-hydroxyethyl)-4-(methylsulfonyl)-2-nitrobenzamide], the hypoxia-dependent cytotoxicity result in data set [9] is given as “increased cytotoxicity in cells under hypoxia”.
